Experimental data as given in US9290481B2, “Monocyclic heteroaryl cycloalkyldiamine derivatives” (NOVARTIS AG, priority 2012, dated 2016).

What was measured:
[1] = tested on: OCl-Ly3 cells; assay: B-cell lymphoma cell proliferation (WST-1 assay), OCl-Ly3; assay type: cell-based; conditions: 4 days of incubation
Method: Cell proliferation was determined using the WST-1 assay (Roche, Mannheim, Germany), which measures the metabolic activity of the cells. […] The cell proliferation reagent WST-1 (10 μl/well) was added to the cells for 1-2 hours depending on the cell type which were cultured in 200 μl of medium. The absorbance was then measured with an enzyme-linked immunosorbent assay plate reader at a wavelength of 450 nm.

[2] = tested on: OCl-Ly10 cells; assay: B-cell lymphoma cell proliferation (WST-1 assay), OCl-Ly10; assay type: cell-based; conditions: 72 h, 3 days of incubation
Method: Cell proliferation was determined using the WST-1 assay (Roche, Mannheim, Germany), which measures the metabolic activity of the cells. Briefly, 5×10^5 TMD-8, OCl-Ly3, and OCl-Ly10 cells/well and 10×10^5 HBL-1 cells/well were seeded in triplicate in 96-well plates and were incubated with various concentrations of compounds to be tested for 3 days. The cell proliferation reagent WST-1 (10 μl/well) was added to the cells for 1-2 hours depending on the cell type which were cultured in 200 μl of medium. The absorbance was then measured with an enzyme-linked immunosorbent assay plate reader at a wavelength of 450 nm.

What does the source list for `NC(=O)c1nnc(N[C@@H]2CCCC[C@@H]2N)nc1Nc1cccc2cc[nH]c12` [Example 1.1, 3-((1R,2S)-2-Amino-cyclohexylamino)-5-(1H-indol-7-ylamino)-[1,2,4]triazine-6-carboxylic acid amide]?
GI50 [1]: No inhibition; GI50 [2]: 25 nM
